Measured values taken from ChEMBL document CHEMBL1201862, “PubChem BioAssay data set” (2004).
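Values below derive from 48-hour exposures of cells grown in 96-well plates, with endpoints linearly interpolated between the two concentrations bracketing the appropriate inhibition level. Here, GI50 denotes the concentration required for 50% inhibition of growth.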 Activity calls are given as the source filed them. Cut-off read from the data, not from the text of the source: active = GI50 up to about 1.1 µM and inactive = higher.

How the values were obtained:
Experiment in all cases: inhibition of tumour cell growth, NCI panel, 48 h
786-0 = test system: 786-0
A498 = test system: A498
A549 = test system: A549
ACHN = test system: ACHN
CAKI-1 = test system: CAKI-1
CCRF-CEM = test system: CCRF-CEM
COLO 205 = test system: COLO 205
DLD-1 = test system: DLD-1
DMS-114 = test system: DMS-114
DMS-273 = test system: DMS-273
EKVX = test system: EKVX
HCC 2998 = test system: HCC 2998
HCT-116 = test system: HCT-116
HCT-15 = test system: HCT-15
HL-60 = test system: HL-60
HOP-18 = test system: HOP-18
HOP-62 = test system: HOP-62
IGROV-1 = test system: IGROV-1
K562 = test system: K562
KM-20L2 = test system: KM-20L2
KM12 = test system: KM12
LXFL 529 = test system: LXFL 529
M14 = test system: M14
M19-MEL = test system: M19-MEL
MOLT-4 = test system: MOLT-4
Malme-3M = test system: Malme-3M
NCI-H226 = test system: NCI-H226
NCI-H460 = test system: NCI-H460
NCI-H522 = test system: NCI-H522
OVCAR-3 = test system: OVCAR-3
OVCAR-4 = test system: OVCAR-4
OVCAR-8 = test system: OVCAR-8
RPMI-8226 = test system: RPMI-8226
RXF 393 = test system: RXF 393
RXF 631 = test system: RXF 631
SF-268 = test system: SF-268
SF-539 = test system: SF-539
SK-MEL-28 = test system: SK-MEL-28
SK-MEL-2 = test system: SK-MEL-2
SK-MEL-5 = test system: SK-MEL-5
SK-OV-3 = test system: SK-OV-3
SN12C = test system: SN12C
SNB-19 = test system: SNB-19
SNB-75 = test system: SNB-75
SNB-78 = test system: SNB-78
SR = test system: SR
SW-620 = test system: SW-620
TK-10 = test system: TK-10
U-251 = test system: U-251
UACC-257 = test system: UACC-257
UACC-62 = test system: UACC-62
UO-31 = test system: UO-31

Measured: GI50

C=CCC12CCC(=O)C=C1CCC1(C2)OCCO1 (configuration not stated)
inactive: 786-0 > 100 µM | A498 > 100 µM | A549 > 100 µM | ACHN > 100 µM | CAKI-1 > 100 µM | CCRF-CEM 53.1 µM | COLO 205 > 100 µM | DLD-1 > 100 µM | DMS-114 > 100 µM | DMS-273 > 100 µM | EKVX > 100 µM | HCC 2998 > 100 µM | HCT-116 > 100 µM | HL-60 40.4 µM | HOP-18 > 100 µM | HOP-62 > 100 µM | IGROV-1 > 100 µM | K562 55.2 µM | KM-20L2 > 100 µM | KM12 > 100 µM | LXFL 529 > 100 µM | M14 > 100 µM | M19-MEL > 100 µM | MOLT-4 > 100 µM | Malme-3M > 100 µM | NCI-H226 > 100 µM | NCI-H460 > 100 µM | NCI-H522 > 100 µM | OVCAR-3 > 100 µM | OVCAR-4 > 100 µM | OVCAR-8 > 100 µM | RPMI-8226 > 100 µM | RXF 393 > 100 µM | RXF 631 > 100 µM | SF-268 > 100 µM | SF-539 > 100 µM | SK-MEL-28 > 100 µM | SK-MEL-2 > 100 µM | SK-MEL-5 > 100 µM | SK-OV-3 > 100 µM | SN12C > 100 µM | SNB-19 > 100 µM | SNB-75 > 100 µM | SNB-78 > 100 µM | SR > 100 µM | SW-620 > 100 µM | TK-10 > 100 µM | U-251 > 100 µM | UACC-257 > 100 µM | UACC-62 > 100 µM | UO-31 > 100 µM
> 100 µM: HCT-15
